Results on three compounds are retold here after US12502398B2, “Combination therapy for treating cancer” (AstraZeneca AB, priority 2019, dated 2025).

Experiment [1] concerns Mouse Lewis lung (LL/2) carcinoma cells. In words: LL/2 syngeneic tumor model with TLR3 agonist, tumor volume. It counts as in vivo. As to conditions: Poly I:C 7.5 mg/kg ip 3x/week; for efficacy / monotherapy activity (in words): COMPOUND 12 30 mg/kg po BID. On the procedure: Mouse Lewis lung (LL/2) carcinoma cells (1×10^6 cells/mouse), were subcutaneously implanted in the right flank of 6 to 8 weeks old C57BL/6 mice. On day 6 post implant, groups of mice were treated with vehicle (water), 30 mg/kg COMPOUND 12, 7.5 mg/kg TLR3 agonist (Poly I:C), or the combination. COMPOUND 12 was formulated in water and dosed orally twice per day. Poly I:C was formulated in water and dosed intraperitoneally 3×/week. Tumor length and width was measured by caliper and tumor volume was calculated using the formula (length×width^2)*π/6 then reported as tumor volume as calculated.

The test system of experiment [2] is Mouse CT.26 WT colorectal cancer cells. Kind of experiment: CT.26 WT syngeneic tumor model, tumor volume. It counts as in vivo. As to conditions: COMPOUND 12 30 mg/kg orally twice per day, Anti-PDL1 10 mg/kg ip twice per week. On the procedure: Mouse CT.26 WT colorectal cancer cells (5×10^5 cells/mouse), were subcutaneously implanted in the right flank of 6 to 8 weeks old female Balb/C mice. On day 6 post implant, groups of mice were treated with vehicle (water), 30 mg/kg COMPOUND 12, 10 mg/kg Anti-PDL1 (MEDI4736), or the combination. Additional groups were treated with 10 mg/kg Anti-NKG2A (monalizumab), in combination with either COMPOUND 12 or MEDI4736, or a triplicate of COMPOUND 12, monalizumab and MEDI4736. COMPOUND 12 was formulated in water and dosed orally twice per day. MEDI4736 was formulated in 1×PBS and dosed intraperitoneally twice per week for 2 weeks. Monalizumab was formulated in 1×PBS and dosed intravenously twice per week for 1.5 weeks (3 doses). Tumor length and width was measured by caliper and tumor volume was calculated using the formula (length×width^2)*π/6 then reported as tumor volume as calculated.

Experiment [3] deals with Mouse MC38 colorectal cancer cells expressing OVA antigen. In words: MC38-OVA syngeneic tumor model, tumor volume. The experiment is classed as in vivo. As to conditions: COMPOUND 12 30 mg/kg orally twice per day, Anti-PDL1 10 mg/kg ip twice per week. On the procedure: Mouse MC38 colorectal cancer cells expressing OVA antigen (5×10^5 cells/mouse), were subcutaneously implanted in the right flank of 6 to 8 weeks old female C57BL/6 mice. On day 6 post transplant, groups of mice were treated with vehicle (water), 30 mg/kg COMPOUND 12, 10 mg/kg Anti-PDL1 (MEDI4736), or the combination. COMPOUND 12 was formulated in water and dosed orally twice per day. MEDI4736 was formulated in 1×PBS and dosed intraperitoneally twice per week for 2 weeks. Tumor length and width was measured by caliper and tumor volume was calculated using the formula (length×width^2)*π/6 then reported as tumor volume as calculated.

The test system of the next experiment is MC38-OVA model. In words: In vivo PD study of immune cell changes in MC38-OVA model (flow cytometry). Further details: species or system mouse. As to conditions: draining lymph node. On the procedure: For monitoring immune cell changes tumors were harvested either four, ten or fourteen days post treatment. Tumors were excised and mechanically minced. Tumors were then incubated with tumor dissociation enzyme mix (Miltenyi Biotec) at 37° C. for 40 min in gentle MACS instrument (Miltenyi biotec). Single cell suspension were made and stained for a variety of immune cell markers to determine the immune cell changes post treatment using multicolor flow cytometry. Furthermore, the functional response of CD8+ cytotoxic T cells was evaluated by ex vivo restimulation with phorbol 12-myristate-13-acetate (PMA) and ionomycin prior to analysis.

Experiment [4] has as its system LL/2 murine lung carcinoma cells. Kind of experiment: LL/2 syngeneic lung tumor model with radio therapy. The experiment is classed as in vivo, mouse. As to conditions: COMPOUND 12 30 mg/kg twice daily, radiation 5 gray on days 6 and 9 after implant. On the procedure:
Six-eight week old BL/6 mice (Charles River Labs) were implanted with 1e6 LL/2 murine lung carcinoma cells subcutaneously on the right flank. At 6 days post implant, animals were randomized by mean cage tumor volume into four groups (n=12/ group). Group 1 was anesthetized for mock irradiation on days 6 and 9, and dosed with vehicle (water) PO, BID starting on day 6. Group 2 was anesthetized and given 5 Gy of radiation targeted to the tumor on days 6 and 9. Group 3 was administered AZ8400 at 30 mg/kg PO bid starting on Day 6, and Group 4 was administered AZ8400 at 30 mg/kg starting on Day 6, and anesthetized and irradiated on days 6 and 9. Body weight and tumor volume were measured twice weekly until tumors were >1500 mm3, at which point mice were humanely sacrificed

As to “polyinosinic:polycytidylic acid [Poly I:C]”, the “efficacy / monotherapy activity (in words)” value in experiment [1] was “moderate monotherapy activity”. Further, in experiment [1] (day 16), the “TGI on day 16” value stood at 76%.

Regarding “Anti-PDL1: MEDI4736, also known as durvalumab, an anti-PD-L1 antibody [reference compound]”, the “efficacy (in words)” value in experiment [2] and in experiment [3] was “modest efficacy” throughout.

As to `CC(C)[C@H](N)C(=O)N[C@H]1CN[C@@](CCCCB(O)O)(C(=O)O)C1` [COMPOUND 12, (2R,4R)-4-((S)-2-amino-3-methylbutanamido)-2-(4-boronobutyl)pyrrolidine-2-carboxylic acid], in the experiment with MC38-OVA model, the “IFNg producing CD8+ T cells in the periphery (draining LN)” value was “increase” and the “TNFa producing CD8+ T cells in the periphery (draining LN)” value is reported as “increase”. In addition, in experiment [2], the “efficacy (in words)” value was “modestly efficacious”. The “efficacy / monotherapy activity (in words)” value in experiment [1] is “modestly efficacious”. For the same compound, the “efficacy (in words)” value in experiment [3] was “modestly efficacious”. In addition, the tumor growth inhibition result in experiment [4] is “about 30%”.
